Measured values published in ChEMBL document CHEMBL5725721, “Pyridazinone-amides derivatives” (2017).

Target: Interleukin-1 receptor-associated kinase 1 (Homo sapiens, UniProt P51617)
Assay: IRAK1 Enzymatic Assay: IRAK1 is a human purified recombinant enzyme (His-TEV-IRAK1 (194-712)) In this assay, IRAK-1 hydrolyses ATP and autophosphorylates.Measurement of IRAK-1 inhibition is performed in streptavidin coated 384 well FlashPlate (PerkinElmer #SMP410A).His-TEV-IRAK-1 (15 ng/well), ATP (1 μM, [33P]ATP 0.25 μCi/well) and compounds in DMSO (range of concentrations from 20 μM to 1 nM) or controls (2% DMSO) are incubated for 3 hours at 30° C. in assay buffer: Hepes pH7.0 50 mM, Fatty acid-free BSA 0.1%, Dithiothreitol DTT 2 mM, MgCl2 10 mM, EGTA 0.5 mM, Triton-X-100 0.01%. Kinase reaction is stopped by addition of EDTA. Supernatant is discarded, plates are washed three times with 150 mM NaCl and radioactivity is then measured in a Microbeta Trilux reader.

Interleukin-1 receptor-associated kinase 1, sequence (P51617 whole entry): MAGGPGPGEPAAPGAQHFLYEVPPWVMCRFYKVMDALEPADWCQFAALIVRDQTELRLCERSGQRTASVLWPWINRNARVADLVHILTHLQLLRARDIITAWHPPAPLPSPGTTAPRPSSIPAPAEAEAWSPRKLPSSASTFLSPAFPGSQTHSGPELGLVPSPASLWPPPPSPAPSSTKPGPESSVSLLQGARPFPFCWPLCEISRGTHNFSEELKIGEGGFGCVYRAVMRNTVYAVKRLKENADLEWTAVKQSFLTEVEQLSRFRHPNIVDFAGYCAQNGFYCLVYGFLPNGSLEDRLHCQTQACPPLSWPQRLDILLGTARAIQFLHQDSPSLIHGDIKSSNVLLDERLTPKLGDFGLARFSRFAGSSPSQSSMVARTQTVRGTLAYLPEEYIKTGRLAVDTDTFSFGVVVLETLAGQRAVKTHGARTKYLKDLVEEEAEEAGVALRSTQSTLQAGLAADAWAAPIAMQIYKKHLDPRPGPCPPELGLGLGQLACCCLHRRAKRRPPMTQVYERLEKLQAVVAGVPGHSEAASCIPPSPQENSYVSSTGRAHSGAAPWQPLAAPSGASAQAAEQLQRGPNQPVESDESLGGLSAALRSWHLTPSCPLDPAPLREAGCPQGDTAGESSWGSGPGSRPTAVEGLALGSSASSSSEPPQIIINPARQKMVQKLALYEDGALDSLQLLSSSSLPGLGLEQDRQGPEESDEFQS

Cc1ccncc1-c1ccc(=O)n(Cc2cccc(C(=O)Nc3nc4ccccc4[nH]3)c2)n1
IC50: < 100 nM
